Assay results published in the supplement of paper PMC10307832.

Key:
Assay in all cases: relative viability (nuclei count vs DMSO), 5 days (fraction); higher = more cells survive
[1] = compound: CN(c1ncccc1CNc1nc(Nc2ccc3c(c2)CC(=O)N3)ncc1C(F)(F)F)S(C)(=O)=O + CCNC(=O)c1noc(-c2cc(C(C)C)c(O)cc2O)c1-c1ccc(CN2CCOCC2)cc1 [Luminespib] (partner 0.01 µM)
Procedure, shortened: (§1)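 Lung cancer cell lines in 1536-well plates got either a single drug or a fixed anchor-drug dose together with five library-drug doses (not always all listed) in √10 steps, by pin tool, on the day after seeding. Nuclei were counted after 5 days, and relative viability is the treated-to-vehicle ratio of nuclei counts. Values are medians of duplicate plates.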

[2] = compound: CN(c1ncccc1CNc1nc(Nc2ccc3c(c2)CC(=O)N3)ncc1C(F)(F)F)S(C)(=O)=O + CS(=O)(=O)CCNCc1ccc(-c2ccc3ncnc(Nc4ccc(OCc5cccc(F)c5)c(Cl)c4)c3c2)o1 [Lapatinib] (partner 2 µM)
Procedure, shortened: as §1

[3] = compound: CN(c1ncccc1CNc1nc(Nc2ccc3c(c2)CC(=O)N3)ncc1C(F)(F)F)S(C)(=O)=O + Nc1ncn([C@H]2C[C@H](O)[C@@H](CO)O2)c(=O)n1 [Decitabine] (partner 2 µM)
Procedure, shortened: as §1

[4] = compound: CN(c1ncccc1CNc1nc(Nc2ccc3c(c2)CC(=O)N3)ncc1C(F)(F)F)S(C)(=O)=O + O=C(c1cc(Cc2n[nH]c(=O)c3ccccc23)ccc1F)N1CCN(C(=O)C2CC2)CC1 [Olaparib] (partner 8 µM)
Procedure, shortened: as §1

| Cell Line | relative viability ([1]; first compound 0.01 µM) | relative viability ([1]; first compound 0.03162 µM) | relative viability ([1]; first compound 0.1 µM) | relative viability ([1]; first compound 0.3162 µM) | relative viability ([1]; first compound 1 µM) | relative viability ([2]; first compound 0.01 µM) | relative viability ([2]; first compound 0.03162 µM) | relative viability ([2]; first compound 0.3162 µM) | relative viability ([2]; first compound 1 µM) | relative viability ([3]; first compound 0.01 µM) | relative viability ([3]; first compound 0.03162 µM) | relative viability ([3]; first compound 0.1 µM) | relative viability ([3]; first compound 0.3162 µM) | relative viability ([3]; first compound 1 µM) | relative viability ([4]; first compound 0.01 µM) | relative viability ([4]; first compound 0.03162 µM) | relative viability ([4]; first compound 0.1 µM) | relative viability ([4]; first compound 0.3162 µM) | relative viability ([4]; first compound 1 µM) | relative viability ([2]; first compound 0.1 µM) |
| --- | --- | --- | --- | --- | --- | --- | --- | --- | --- | --- | --- | --- | --- | --- | --- | --- | --- | --- | --- | --- |
| NCI-H322M | 0.798 | 1 | 0.966 | 1.03 | 0.896 | 0.585 | 0.675 | 0.596 | 0.653 | 0.697 | 0.802 | 0.775 | 0.681 | 0.714 | 0.741 | 0.774 | 0.739 | 0.878 | 0.832 |  |
| NCI-H1975 | 0.243 | 0.259 | 0.239 | 0.389 | 0.194 | 0.921 | 0.971 | 0.926 | 0.723 | 0.423 | 0.403 | 0.432 | 0.417 | 0.436 | 0.799 | 0.873 | 0.821 | 0.832 | 0.7 | 0.914 |
| NCI-H1437 | 1.14 | 1.16 | 1.12 | 0.993 | 0.687 | 0.876 | 0.944 | 0.722 | 0.725 | 0.535 | 0.661 | 0.502 | 0.498 | 0.422 | 0.63 | 0.633 | 0.59 | 0.583 | 0.466 | 0.813 |
| NCI-H2009 | 1.04 | 1.02 | 1.03 | 0.683 | 0.948 | 1.38 | 0.959 | 0.897 | 0.903 | 0.425 | 0.362 | 0.372 | 0.4 | 0.448 | 0.651 | 0.707 | 0.684 | 0.681 | 0.679 | 0.891 |
| NCI-H1651 | 1.03 | 0.957 | 0.708 | 0.688 | 0.667 | 0.82 | 1.02 | 0.731 | 0.784 | 0.657 | 0.695 | 0.623 | 0.713 | 0.576 | 0.187 | 0.172 | 0.204 | 0.183 | 0.197 | 0.9 |
| NCI-H1666 | 0.936 | 0.939 | 0.923 | 0.786 | 0.612 | 0.678 | 0.624 | 0.546 | 0.493 | 0.729 | 0.749 | 0.642 | 0.666 | 0.628 | 0.671 | 0.755 | 0.702 | 0.744 | 0.706 | 0.611 |
| NCI-H1734 | 0.198 | 0.178 | 0.184 | 0.227 | 0.18 | 0.993 | 1.17 | 1.1 | 1.05 | 0.473 | 0.535 | 0.571 | 0.524 | 0.55 | 0.586 | 0.677 | 0.614 | 0.594 | 0.596 | 1.06 |
| EPLC-272H | 0.6 | 0.487 | 0.265 | 0.317 | 0.251 | 0.921 | 0.914 | 0.965 | 1.09 | 0.367 | 0.339 | 0.357 | 0.397 | 0.336 | 0.699 | 0.544 | 0.821 | 0.871 | 0.506 | 0.884 |
| NCI-H2023 | 0.696 | 0.79 | 0.597 | 0.643 | 0.611 | 0.855 | 0.976 | 0.908 | 0.761 | 0.23 | 0.259 | 0.218 | 0.234 | 0.202 | 0.458 | 0.476 | 0.467 | 0.359 | 0.407 | 0.781 |
| BEN | 0.392 | 0.313 | 0.863 | 0.289 | 0.328 | 0.699 | 0.689 | 0.715 | 0.686 | 0.739 | 0.739 | 0.715 | 0.763 | 0.671 | 0.961 | 1.27 | 1.26 | 1.18 | 1.1 | 0.654 |
| COR-L 105 | 0.691 | 0.712 | 0.809 | 0.766 | 0.526 | 0.335 | 0.387 | 0.355 | 0.341 | 0.762 | 0.68 | 0.728 | 0.733 | 0.697 | 0.794 | 0.709 | 0.728 | 0.645 | 0.522 | 0.355 |
| ABC-1 | 0.557 | 0.985 | 0.511 | 0.524 | 0.516 | 1.29 | 1.15 | 1.13 | 1.21 | 1.01 | 1.17 | 0.949 | 0.944 | 1.09 | 0.813 | 1.08 | 1.42 | 0.893 | 1.06 | 1.36 |
| HCC-15 | 0.543 | 0.456 | 0.349 | 0.407 | 0.301 | 0.876 | 0.905 | 0.775 | 0.723 | 0.639 | 0.629 | 0.548 | 0.496 | 0.523 | 0.778 | 0.799 | 0.713 | 0.661 | 0.619 | 0.72 |
